Laboratory results reported in patent US11702404B2, “GLP-1R modulating compounds” (priority 2019, dated 2023).
Where two headings read alike, the source gives them in different places.

Tests used:
[1] = Microsomal stability, human liver microsomes (predicted hepatic clearance); details: predicted from in vitro microsomal stability data
[2] = molecular target: GLP-1R (Homo sapiens, UniProt P43220); experiment: GLP-1R activation: cAMP increase in CHO cells stably expressing GLP-1R; assay type: cell-based
[3] = cAMP increase, CHO cells stably expressing GLP-1R, 10 point dose response, 30 minutes incubation, read-out: EC50

Sequence of GLP-1R (P43220 24-463): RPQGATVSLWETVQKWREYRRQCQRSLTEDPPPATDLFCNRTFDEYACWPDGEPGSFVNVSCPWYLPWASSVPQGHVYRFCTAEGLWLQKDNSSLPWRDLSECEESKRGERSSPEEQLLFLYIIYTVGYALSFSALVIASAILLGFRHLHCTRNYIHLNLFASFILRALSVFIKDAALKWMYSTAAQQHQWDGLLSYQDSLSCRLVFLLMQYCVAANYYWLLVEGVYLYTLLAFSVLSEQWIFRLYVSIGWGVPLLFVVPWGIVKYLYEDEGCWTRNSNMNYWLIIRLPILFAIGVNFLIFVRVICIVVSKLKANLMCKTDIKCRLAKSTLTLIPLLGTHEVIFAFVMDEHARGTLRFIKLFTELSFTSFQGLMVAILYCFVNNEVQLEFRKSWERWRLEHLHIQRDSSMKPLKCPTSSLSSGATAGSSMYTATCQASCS

Structure (SMILES) | Predicted Hepatic Clearance (Pred. Cl.) [1] [L/h/kg] | EC50 [2, 3] [nM] | EC50 ([2]; EC50 (nM)) [nM]
COCCn1c(Cc2cc(F)c(-c3cccc(OCc4cccc(-c5ccn(C)n5)c4)n3)cc2F)nc2ccc(C(=O)O)cc21 [Example 914] | 0.36 | 51.5 | –
N#Cc1ccc(COc2cccc(-c3cc(F)c(Cc4nc5ccc(C(=O)O)cc5n4C[C@@H]4CCO4)cc3F)n2)c(F)c1 (single isomer, unassigned) [Example 757] | 0.26 | 0.03 | –
Cn1ncnc1Cn1c(Cc2cc(F)c(-c3cccc(OCc4ccc(C#N)cc4F)n3)cc2F)nc2ccc(C(=O)O)cc21 [Example 578, 2-(4-(6-((4-cyano-2-fluorobenzyl)oxy)pyridin-2-yl)-2,5-difluorobenzyl)-1-((1-methyl-1H-1,2,4-triazol-5-yl)methyl)-1H-benzo[d]imidazole-6-carboxylic acid] | 0.28 | 13.8 | –
COc1cc(C#N)ccc1COc1nccc(-c2cc(F)c(Cc3nc4ccc(C(=O)O)cc4n3CC3(CC#N)CC3)cc2F)n1 [Example 417, 2-(4-(2-((4-cyano-2-methoxybenzyl)oxy)pyrimidin-4-yl)-2,5-difluorobenzyl)-1-((1-(cyanomethyl)cyclopropyl)methyl)-1H-benzo[d]imidazole-6-carboxylic acid] | 0.76 | 0.1 | –
N#Cc1ccc(COc2cccc(-c3ccc(Cc4nc5ccc(C(=O)O)cc5n4Cc4cn[nH]c4)c(F)c3)n2)c(F)c1 [Example 491, 1-((1H-pyrazol-4-yl)methyl)-2-(4-(6-((4-cyano-2-fluorobenzyl)oxy)pyridin-2-yl)-2-fluorobenzyl)-1H-benzo[d]imidazole-6-carboxylic acid] | 0.76 | 19.4 | –
COC1(Cn2c(Cc3cc(F)c(-c4cccc(OCc5ccc(C#N)cc5F)n4)cc3F)nc3ccc(C(=O)O)cc32)CN(C2COC2)C1 [Example 696] | 0.65 | 592 | –
O=C(O)c1ccc2nc(Cc3ccc(-c4cccc(OCc5ccc(C(F)(F)F)nc5)n4)c(F)c3)n(C[C@@H]3CCO3)c2c1 [Example 655] | 0.32 | 1.26 | –
N#Cc1ccc(COc2cccc(-c3ccc(Cc4nc5ccc(C(=O)O)cc5n4CC4CCS4(=O)=O)c(F)c3)n2)c(F)c1 (stereo not shown) [Example 17, 2-(4-(6-((4-cyano-2-fluorobenzyl)oxy)pyridin-2-yl)-2-fluorobenzyl)-1-((1,1-dioxidothietan-2-yl)methyl)-1H-benzo[d]imidazole-6-carboxylic acid] | 0.16 | 11 | –
O=C(O)c1ccc2nc(Cc3cc(F)c(-c4cccc(OCc5ccc(C(F)F)cc5F)n4)cc3F)n(Cc3ncco3)c2c1 [Example 608] | 0.11 | 0.74 | –
COC(C)(C)Cn1c(Cc2cc(F)c(-c3cccc(OCc4ccc(C#N)cc4F)n3)cc2F)nc2ccc(C(=O)O)cc21 [Example 586, 2-(4-(6-((4-cyano-2-fluorobenzyl)oxy)pyridin-2-yl)-2,5-difluorobenzyl)-1-(2-methoxy-2-methylpropyl)-1H-benzo[d]imidazole-6-carboxylic acid] | 0.46 | 0.54 | –
COC[C@@H](C)n1c(Cc2cc(F)c(-c3cccc(OCc4ccc(C#N)cc4F)n3)cc2F)nc2ccc(C(=O)O)cc21 [Example 560, (R)-2-(4-(6-((4-cyano-2-fluorobenzyl)oxy)pyridin-2-yl)-2,5-difluorobenzyl)-1-(1-methoxypropan-2-yl)-1H-benzo[d]imidazole-6-carboxylic acid] | 0.35 | 1.92 | –
N#Cc1ccc(COc2cccc(-c3ccc(Cc4nc5ccc(C(=O)O)cc5n4CC4(c5ccncc5)CC4)c(F)c3)n2)c(F)c1 [Example 275, 2-(4-(6-((4-cyano-2-fluorobenzyl)oxy)pyridin-2-yl)-2-fluorobenzyl)-1-((1-(pyridin-4-yl)cyclopropyl)methyl)-1H-benzo[d]imidazole-6-carboxylic acid] | 0.73 | 5.51 | –
COCCn1c(Cc2ccc(-c3cccc(OCc4cccnc4OC)n3)cc2F)nc2ccc(C(=O)O)cc21 [Example 511, 2-(2-fluoro-4-(6-((2-methoxypyridin-3-yl)methoxy)pyridin-2-yl)benzyl)-1-(2-methoxyethyl)-1H-benzo[d]imidazole-6-carboxylic acid] | 1.12 | 29.7 | –
COCC(COC)n1c(Cc2cc(F)c(-c3cccc(OCc4ccc(C#N)cc4F)n3)cc2F)nc2ccc(C(=O)O)cc21 [Example 732] | 0.49 | 169 | –
N#Cc1ccc(COc2cccc(-c3ccc(Cc4nc5ccc(C(=O)O)cc5n4C[C@@H]4CCCO4)cc3F)n2)c(F)c1 [Example 834] | 0.38 | 0.69 | –
COCCn1c(Cc2cc(F)c(-c3cccc(OCc4ccc(C(N)=O)cc4F)n3)cc2F)nc2ccc(C(=O)O)cc21 [Example 554, 2-(4-(6-((4-carbamoyl-2-fluorobenzyl)oxy)pyridin-2-yl)-2,5-difluorobenzyl)-1-(2-methoxyethyl)-1H-benzo[d]imidazole-6-carboxylic acid] | 0.25 | 48.2 | –
COC(Cn1c(Cc2ccc(-c3cccc(OCc4ccc(C#N)cc4F)n3)cc2F)nc2ccc(C(=O)O)cc21)C(=O)O (single isomer, unassigned) [Example 333, 1-(2-carboxy-2-methoxyethyl)-2-(4-(6-((4-cyano-2-fluorobenzyl)oxy)pyridin-2-yl)-2-fluorobenzyl)-1H-benzo[d]imidazole-6-carboxylic acid] | <0.11 | 624 | –
COCCn1c(Cc2cnn(-c3cccc(OCc4ccc(C#N)cc4F)n3)c2)nc2ccc(C(=O)O)cc21 [Example 107, 2-[[1-[6-[(4-cyano-2-fluoro-phenyl)methoxy]-2-pyridyl]pyrazol-4-yl]methyl]-3-(2-methoxyethyl)benzimidazole-5-carboxylic acid] | 0.83 | 3640 | –
N#CCC1(Cn2c(Cc3cc(F)c(-c4cccc(OCc5ccc(Cl)cc5F)n4)cc3F)nc3ccc(C(=O)O)cc32)CC1 [Example 416, 2-(4-(6-((4-chloro-2-fluorobenzyl)oxy)pyridin-2-yl)-2,5-difluorobenzyl)-1-((1-(cyanomethyl)cyclopropyl)methyl)-1H-benzo[d]imidazole-6-carboxylic acid] | 0.25 | 0.09 | –
COCCn1c(Cc2ccc(-c3cccc(OCc4cccn(C)c4=O)n3)cc2F)nc2ccc(C(=O)O)cc21 [Example 374, 2-(2-fluoro-4-(6-((1-methyl-2-oxo-1,2-dihydropyridin-3-yl)methoxy)pyridin-2-yl)benzyl)-1-(2-methoxyethyl)-1H-benzo[d]imidazole-6-carboxylic acid] | 0.39 | 1930 | –
CC(C)(C)OCCn1c(Cc2cc(F)c(-c3cccc(OCc4ccc(C#N)cc4F)n3)cc2F)nc2ccc(C(=O)O)cc21 [Example 893, 1-(2-(tert-butoxy)ethyl)-2-(4-(6-((4-cyano-2-fluorobenzyl)oxy)pyridin-2-yl)-2,5-difluorobenzyl)-1H-benzo[d]imidazole-6-carboxylic acid] | 0.11 | – | 35.3
COCCn1c(Cc2ccc(-c3conc3OCc3ccc(C#N)cc3F)cc2F)nc2ccc(C(=O)O)cc21 [Example 80, 2-(4-(3-((4-cyano-2-fluorobenzyl)oxy)isoxazol-4-yl)-2-fluorobenzyl)-1-(2-methoxyethyl)-1H-benzo[d]imidazole-6-carboxylic acid] | 0.31 | 2630 | –
COCCn1c(Cc2ccc(-c3cccc(OCc4cccc(C(C)(C)C#N)c4)n3)cc2F)nc2ccc(C(=O)O)cc21 [Example 142, 2-(4-(6-((3-(2-cyanopropan-2-yl)benzyl)oxy)pyridin-2-yl)-2-fluorobenzyl)-1-(2-methoxyethyl)-1H-benzo[d]imidazole-6-carboxylic acid] | 0.53 | 162 | –
O=C(O)c1cc(F)c2nc(Cc3cc(F)c(-c4nc(OCc5ccc(C(F)(F)F)cc5F)ccc4F)cc3F)n(C[C@@H]3CCO3)c2c1 [Example 781] | 0.19 | 0.03 | –
COCCn1c(Cc2ccc(-c3cccc(OCc4ccc(C#N)cc4F)n3)cc2-c2ccc(C#N)cc2)nc2ccc(C(=O)O)cc21 [Example 193, 2-((4′-cyano-5-(6-((4-cyano-2-fluorobenzyl)oxy)pyridin-2-yl)-[1,1′-biphenyl]-2-yl)methyl)-1-(2-methoxyethyl)-1H-benzo[d]imidazole-6-carboxylic acid] | 0.41 | 131 | –
COCCn1c(Cc2ccc(-c3cccc(OCc4cc(C(C)C)ccc4OC)n3)cc2F)nc2ccc(C(=O)O)cc21 [Example 145, 2-(2-fluoro-4-(6-((5-isopropyl-2-methoxybenzyl)oxy)pyridin-2-yl)benzyl)-1-(2-methoxyethyl)-1H-benzo[d]imidazole-6-carboxylic acid] | 0.5 | 1730 | –
N#Cc1ccc(COc2cccc(-c3cc(F)c(Cc4nc5ccc(C(=O)O)cc5n4CC45CC(CO4)C5)cc3F)n2)c(F)c1 [Example 574] | 0.115 | 0.63 | –
COCCn1c(Cc2cc(F)c(-c3cccc(OCc4ccc(F)cc4C)n3)cc2F)nc2ccc(C(=O)O)cc21 [Example 816] | 0.57 | 1 | –
N#Cc1cc(F)c(COc2ccnc(-c3cc(F)c(Cc4nc5ccc(C(=O)O)cc5n4C[C@@H]4CCO4)cc3F)n2)cc1F [Example 755] | 0.59 | 0.42 | –
